Data set [1] concerns Rattus norvegicus. Nature of the data set: Protection against OVX-induced osteoporosis in osteoporosis rat model assessed as increase in bone mineral density of femur at 220 mg/kg/day after 3 months by dual X-ray absorptiometry. Type of data set: functional, organism-based.
Data set [2] deals with Rattus norvegicus. The experiment in a line: Protection against OVX-induced oxidative stress in osteoporosis rat model assessed as decrease in H2O2 level in serum at 220 mg/kg/day after 3 months by colorimetric assay. The class given is functional, organism-based.
The subject of data set [3] is Rattus norvegicus. Nature of the data set: Protection against OVX-induced oxidative stress in osteoporosis rat model assessed as […] level in serum at 220 mg/kg/day after 3 months by colorimetric assay. Type of data set: functional, organism-based.
Data set [4] is described as follows: Induction of Wnt/beta-catenin signaling pathway in […] cells assessed as protection against H2O2-induced oxidative stress in presence of Wnt/beta-catenin signaling pathway inhibitor XAV-939. The class given is cell-based.
The test system of data set [5] is MC3T3-E1. The experiment in a line: Increase in cell viability of […] cells at 1 mM after 48 hrs by MTT assay. Type of data set: functional, cell-based. A general note: Tetrazolium dyes change colour on reduction, which living cells bring about.
The species named for data set [6] is Rattus norvegicus. Nature of the data set: Cytotoxicity against […] cells assessed as effect on cell number at 2 mM after 48 hrs by MTT assay. Type of data set: toxicity, cell-based. As to conditions: mc3t3-e1, 48 h, 2000 µM.
Data set [7] in a line: Induction of Wnt/beta-catenin signaling pathway in […] cells assessed as protection against H2O2-induced cell death at 0.5 to 2 mM pretreated with compound for 48 hrs followed by H2O2 treatment for 24 hrs by MTT assay. Type of data set: cell-based.
A short description of data set [8]: Induction of Wnt/beta-catenin signaling pathway in […] cells assessed as protection against H2O2-induced cell death at 2 mM pretreated with compound for 48 hrs followed by H2O2 treatment for 24 hrs by MTT assay. The class given is cell-based.
Data set [9] in a line: Induction of Wnt/beta-catenin signaling pathway in […] cells assessed as protection against H2O2-induced oxidative stress by measuring increase in ALP activity at 0.5 to 2 mM pretreated with compound for 48 hrs followed by H2O2 treatment for 24 hrs. The class given is cell-based.
A short description of data set [10]: Induction of Wnt/beta-catenin signaling pathway in […] cells assessed as protection against H2O2-induced oxidative stress by measuring increase in ALP activity at 2 mM pretreated with compound for 48 hrs followed by H2O2 treatment for 24 hrs. The class given is cell-based.
Data set [11] in a line: Induction of Wnt/beta-catenin signaling pathway in […] cells assessed as protection against H2O2-induced oxidative stress by measuring increase in mineralization at 0.5 to 2 mM pretreated with compound for 48 hrs followed by H2O2 treatment for 24 hrs. Type of data set: cell-based.
Data set [12] can be described thus: Induction of Wnt/beta-catenin signaling pathway in […] cells assessed as protection against H2O2-induced oxidative stress by measuring increase in mineralization at 2 mM pretreated with compound for 48 hrs followed by H2O2 treatment for 24 hrs. The class given is cell-based.
Data set [13] is described as follows: Induction of Wnt/beta-catenin signaling pathway in rat MC3T3-E1 cells assessed as protection against H2O2-induced oxidative stress by measuring increase in onc mRNA expression at 0.5 to 2 mM pretreated with compound for 48 hrs followed by H2O2 treatment for 24 hrs by immunofluorescence staining method. Type of data set: cell-based.
Data set [14] can be described thus: Induction of Wnt/beta-catenin signaling pathway in […] cells assessed as protection against H2O2-induced oxidative stress by measuring increase in onc mRNA expression at 2 mM pretreated with compound for 48 hrs followed by H2O2 treatment for 24 hrs by immunofluorescence staining method. The class given is cell-based.
Data set [15] in a line: Induction of Wnt/beta-catenin signaling pathway in […] cells assessed as protection against H2O2-induced oxidative stress by measuring Runx2 activation at 0.5 to 2 mM pretreated with compound for 48 hrs followed by H2O2 treatment for 24 hrs by Western blot analysis. The class given is cell-based.
The test system of data set [16] is MC3T3-E1. The experiment in a line: Protection against H2O2-induced apoptosis in […] cells assessed as decrease in nuclear condensation pretreated with compound for 48 hrs followed by H2O2 treatment for 24 hrs by DAPI staining based confocal laser scanning microscopy. The class given is functional, cell-based.
Data set [17] deals with MC3T3-E1. Nature of the data set: Protection against H2O2-induced apoptosis in rat MC3T3-E1 cells assessed as decrease in nuclear fragmentation pretreated with compound for 48 hrs followed by H2O2 treatment for 24 hrs by DAPI staining based confocal laser scanning microscopy. Type of data set: functional, cell-based.
The subject of data set [18] is MC3T3-E1. Nature of the data set: Protection against H2O2-induced apoptosis in rat MC3T3-E1 cells assessed as inhibition of caspase 3 activation using Ac-DEVD-pNA as substrate pretreated with compound for 48 hrs followed by H2O2 treatment for 24 hrs. The class given is functional, cell-based.
In data set [19] the test system is MC3T3-E1. Nature of the data set: Protection against H2O2-induced apoptosis in rat MC3T3-E1 cells assessed as inhibition of caspase 3 mRNA level pretreated with compound for 48 hrs followed by H2O2 treatment for 24 hrs by quantitative real-time PCR method. The class given is functional, cell-based.
The nature of data set [20]: Induction of Wnt/beta-catenin signaling pathway in […] cells assessed as protection against H2O2-induced oxidative stress by measuring decrease in phosphorylated beta-catenin expression at 0.5 to 2 mM pretreated with compound for 48 hrs followed by H2O2 treatment for 24 hrs by Western blot analysis. The class given is cell-based. A general note: A western blot detects proteins with antibodies after separation by electrophoresis.

Data set [21] in a line: Induction of Wnt/beta-catenin signaling pathway in […] cells assessed as protection against H2O2-induced oxidative stress by measuring decrease in phosphorylated beta-catenin expression at 1.5 mM pretreated with compound for 48 hrs followed by H2O2 treatment for 24 hrs by Western blot analysis. Type of data set: cell-based.
Data set [22] is described as follows: Induction of Wnt/beta-catenin signaling pathway in […] cells assessed as protection against H2O2-induced oxidative stress by measuring OPG activation at 0.5 to 2 mM pretreated with compound for 48 hrs followed by H2O2 treatment for 24 hrs by Western blot analysis. The class given is cell-based.
Data set [23] is described as follows: Induction of Wnt/beta-catenin signaling pathway in […] cells assessed as protection against H2O2-induced oxidative stress by measuring ALP activation at 0.5 to 2 mM pretreated with compound for 48 hrs followed by H2O2 treatment for 24 hrs by Western blot analysis. The class given is cell-based.
For data set [24], the species on record is Rattus norvegicus. The experiment in a line: Cytotoxicity against […] cells assessed as effect on cell number at 1 mM after 48 hrs by MTT assay. The class given is toxicity, cell-based. The settings on record: mc3t3-e1, 48 h, 1000 µM.

Calls of active or inactive are those of the source. The rule behind the calls is not given here.

Among the data in ChEMBL document CHEMBL3856247, “Wnt/β-catenin signaling plays an important role in the protective effects of FDP-Sr against oxidative stress induced apoptosis in MC3T3-E1 cell” (Bioorg Med Chem Lett, 2016) are Activity values, retold here.

For `O.O.O.O.O.O.O.O.O=P([O-])([O-])OCC1(O)O[C@H](COP(=O)([O-])O)[C@@H](O)[C@@H]1O.[Na+].[Na+].[Na+]` (some centres undefined) [FOSFRUCTOSE TRISODIUM], the outcome (with Rattus norvegicus [1]; in the data set with Rattus norvegicus [2]; in the data set on Rattus norvegicus [3]; in data set [4]; in the data set with MC3T3-E1 [5]; in data set [7]) was Active. The result in [8], in [9], in data set [10], in [11], in data set [12] and in [13] was Active. In addition, the result (in data set [14]; in data set [15]; with MC3T3-E1 [16]; in the data set with MC3T3-E1 [17]; in the data set on MC3T3-E1 [18]; in the data set with MC3T3-E1 [19]) was Active. In addition, the outcome in [20], in data set [21], in data set [22] and in [23] was Active. Also, the Activity entry in the data set listed under Rattus norvegicus [6] is reported as “Non-Toxic”.
As to `CC(=O)N[C@@H](CS)C(=O)O` [ACETYLCYSTEINE], the Activity result in the data set listed under Rattus norvegicus [24] is “Non-Toxic”.
